# Publication PMC10746543, “Design principles for cyclin K molecular glue degraders” (Nature Chemical Biology, 2023)
# pIC50: −log10 of the molar value. “And” between values parts separate entries of the source, which are not always exact repeats. Equal values may be shown once. Read-outs that look alike come from different tables or passages of the source.
# Experiments:
# [1] = molecular target: T1, CDK9–cyclin T (Homo sapiens, UniProt P50750); assay: Lanthascreen kinase binding assay, CDK9; conditions: Supplementary Table 2; read-out: Lanthascreen IC50 [nM] CDK9
# T1 construct: purchased Thermo Fisher
# T1 sequence (P50750 whole entry): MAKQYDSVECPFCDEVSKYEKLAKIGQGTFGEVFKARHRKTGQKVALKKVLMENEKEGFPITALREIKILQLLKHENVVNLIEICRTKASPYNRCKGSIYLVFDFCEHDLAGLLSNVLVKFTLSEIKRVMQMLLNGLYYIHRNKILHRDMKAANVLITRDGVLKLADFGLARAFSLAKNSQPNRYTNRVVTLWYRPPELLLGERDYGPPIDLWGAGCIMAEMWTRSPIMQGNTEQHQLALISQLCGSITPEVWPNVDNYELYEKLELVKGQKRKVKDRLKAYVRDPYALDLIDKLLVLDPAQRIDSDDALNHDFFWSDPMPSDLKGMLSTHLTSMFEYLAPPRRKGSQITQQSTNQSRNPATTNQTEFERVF
# T1 sequence (O60563 whole entry partner): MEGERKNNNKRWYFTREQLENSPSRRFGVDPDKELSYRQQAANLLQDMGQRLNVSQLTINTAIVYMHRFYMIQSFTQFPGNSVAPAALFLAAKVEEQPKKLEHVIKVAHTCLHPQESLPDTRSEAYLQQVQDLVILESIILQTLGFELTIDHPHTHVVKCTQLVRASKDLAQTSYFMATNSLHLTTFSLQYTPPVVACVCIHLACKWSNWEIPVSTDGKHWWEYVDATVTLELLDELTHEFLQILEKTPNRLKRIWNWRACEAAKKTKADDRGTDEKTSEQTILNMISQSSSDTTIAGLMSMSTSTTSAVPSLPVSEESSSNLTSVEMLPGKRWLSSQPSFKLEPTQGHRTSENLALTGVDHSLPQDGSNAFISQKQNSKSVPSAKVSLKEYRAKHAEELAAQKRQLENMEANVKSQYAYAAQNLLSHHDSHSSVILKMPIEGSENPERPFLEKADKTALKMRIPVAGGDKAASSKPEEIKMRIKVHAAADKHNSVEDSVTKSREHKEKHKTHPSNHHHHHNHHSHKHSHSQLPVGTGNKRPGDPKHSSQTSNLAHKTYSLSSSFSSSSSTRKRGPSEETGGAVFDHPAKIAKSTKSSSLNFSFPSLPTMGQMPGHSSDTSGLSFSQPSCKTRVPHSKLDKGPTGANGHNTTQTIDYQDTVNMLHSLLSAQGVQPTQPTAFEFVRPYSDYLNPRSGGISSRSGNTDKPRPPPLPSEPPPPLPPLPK
# Protocol: (§1) Lanthascreen experiments were performed using commercially available reagents (Thermo Fisher) and according to the manufacturer’s instructions.
# [2] = molecular target: T2, CDK12–cyclin K and DDB1 (Homo sapiens, UniProt Q16531+Q9NYV4, K965R); assay: TR-FRET ternary complex formation assay (compound titration); type: binding
# T2 construct: His6–CDK12 (a.a. 713–1,052); full-length or beta-propeller B domain deletion (ΔBPB: a.a. 396–705 deleted) constructs of His6–DDB1ΔBPB, StrepII–Avi–DDB1, or His6–Spy–DDB1; made in house; host or cells: Trichoplusia ni High Five insect cells (baculovirus)
# T2 sequence (Q9NYV4 713-1052 K965R): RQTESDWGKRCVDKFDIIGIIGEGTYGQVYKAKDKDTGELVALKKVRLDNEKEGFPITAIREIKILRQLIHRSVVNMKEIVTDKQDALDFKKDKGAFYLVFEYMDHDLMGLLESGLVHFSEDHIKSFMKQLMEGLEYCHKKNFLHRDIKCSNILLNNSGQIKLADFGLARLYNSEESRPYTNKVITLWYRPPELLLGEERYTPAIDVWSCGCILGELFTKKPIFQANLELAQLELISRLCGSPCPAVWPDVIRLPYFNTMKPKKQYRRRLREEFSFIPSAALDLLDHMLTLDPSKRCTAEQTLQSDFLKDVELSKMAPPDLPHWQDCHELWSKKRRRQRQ
# T2 sequence (O75909 1-267 partner): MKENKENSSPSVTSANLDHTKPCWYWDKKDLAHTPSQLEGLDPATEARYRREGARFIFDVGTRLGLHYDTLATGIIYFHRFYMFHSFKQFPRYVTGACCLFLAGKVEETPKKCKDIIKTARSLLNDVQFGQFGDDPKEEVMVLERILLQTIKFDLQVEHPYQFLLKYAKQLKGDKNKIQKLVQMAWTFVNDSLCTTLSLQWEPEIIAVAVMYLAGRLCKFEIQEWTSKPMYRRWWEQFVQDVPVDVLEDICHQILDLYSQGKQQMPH
# T2 sequence (Q16531 whole entry): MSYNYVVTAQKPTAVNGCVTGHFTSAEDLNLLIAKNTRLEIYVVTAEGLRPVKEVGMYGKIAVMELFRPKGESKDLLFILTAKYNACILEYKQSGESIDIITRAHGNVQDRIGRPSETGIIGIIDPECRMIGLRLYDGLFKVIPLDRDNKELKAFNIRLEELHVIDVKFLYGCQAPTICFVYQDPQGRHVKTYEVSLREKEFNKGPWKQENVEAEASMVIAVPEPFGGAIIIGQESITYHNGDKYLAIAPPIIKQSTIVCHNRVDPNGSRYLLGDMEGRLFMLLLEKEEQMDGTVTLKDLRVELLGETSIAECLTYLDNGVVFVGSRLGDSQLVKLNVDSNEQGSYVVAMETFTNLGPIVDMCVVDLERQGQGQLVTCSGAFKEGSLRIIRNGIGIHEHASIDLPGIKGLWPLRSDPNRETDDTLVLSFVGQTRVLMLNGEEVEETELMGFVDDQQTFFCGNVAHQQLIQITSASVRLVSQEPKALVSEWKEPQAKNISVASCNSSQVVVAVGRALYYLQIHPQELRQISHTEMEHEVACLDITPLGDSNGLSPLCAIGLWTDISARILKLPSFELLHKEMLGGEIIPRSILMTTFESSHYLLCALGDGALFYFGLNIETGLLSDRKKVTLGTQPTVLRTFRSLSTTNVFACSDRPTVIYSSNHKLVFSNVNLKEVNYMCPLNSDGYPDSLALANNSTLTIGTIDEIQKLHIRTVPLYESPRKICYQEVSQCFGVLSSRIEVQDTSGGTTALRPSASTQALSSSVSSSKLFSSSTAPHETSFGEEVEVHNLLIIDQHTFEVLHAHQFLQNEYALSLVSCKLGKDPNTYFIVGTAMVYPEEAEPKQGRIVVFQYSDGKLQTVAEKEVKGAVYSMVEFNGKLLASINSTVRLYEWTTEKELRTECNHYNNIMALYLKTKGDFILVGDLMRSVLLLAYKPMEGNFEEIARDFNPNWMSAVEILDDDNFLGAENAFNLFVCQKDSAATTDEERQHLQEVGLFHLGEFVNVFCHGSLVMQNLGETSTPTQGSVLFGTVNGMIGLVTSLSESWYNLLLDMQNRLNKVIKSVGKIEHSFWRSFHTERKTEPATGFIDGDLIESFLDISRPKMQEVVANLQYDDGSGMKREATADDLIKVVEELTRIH
# Outline: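 A time delay of 70 μs preceded acquisition, limiting background fluorescence; the ratio of emission at 520 versus 490 nm gave the TR-FRET value.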
# [3] = test system: cyclin K–eGFP degradation reporter; assay: Cyclin K reporter stability analysis (dual-color cyclin K–eGFP reporter); type: cell-based, human
# Outline: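 Readout was the eGFP-to-mCherry geometric-mean ratio by flow cytometry, normalized to three DMSO controls, after 5 h drug exposure. Cells used were HEK293T–Cas9 expressing the dual-colour cyclin K–eGFP degradation reporter.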
# [4] = molecular target: T3, CDK2–cyclin A (Homo sapiens, UniProt P24941); assay: Lanthascreen kinase binding assay, CDK2
# T3 construct: purchased Thermo Fisher
# Protocol: as §1
smiles,measurement,setting,value
Cn1cc(-n2cnc3c(NCc4nc5cc(Cl)c(Cl)cc5[nH]4)nc(N4CCOCC4)nc32)cn1 [SR-4835],IC50,[1],3660 nM
same,TR-FRET signal,[2]; compound concentration 0.468 nM,0.24 and 0.2487 and 0.176 and 0.1833 and 0.1905 and 0.1902
same,TR-FRET signal at compound concentration 0.468 nM,"[2]; compound concentration 0.468 nM, raw replicate titration data",0.24 and 0.2487 and 0.176 and 0.1833 and 0.1905 and 0.1902
same,TR-FRET signal,[2]; compound concentration 2.16 nM,0.2823 and 0.3111 and 0.2192 and 0.2275 and 0.225 and 0.234
same,TR-FRET signal at compound concentration 2.16 nM,"[2]; compound concentration 2.16 nM, raw replicate titration data",0.2823 and 0.3111 and 0.2192 and 0.2275 and 0.225 and 0.234
same,TR-FRET signal,[2]; compound concentration 3.6 nM,0.3779 and 0.4354 and 0.3063 and 0.3176 and 0.3203 and 0.3168
same,TR-FRET signal at compound concentration 3.6 nM,"[2]; compound concentration 3.6 nM, raw replicate titration data",0.3779 and 0.4354 and 0.3063 and 0.3176 and 0.3203 and 0.3168
same,TR-FRET signal,[2]; compound concentration 7.92001 nM,0.6106 and 0.7496 and 0.4912 and 0.5419 and 0.5567 and 0.5439
same,TR-FRET signal at compound concentration 7.92001 nM,"[2]; compound concentration 7.92001 nM, raw replicate titration data",0.6106 and 0.7496 and 0.4912 and 0.5419 and 0.5567 and 0.5439
same,TR-FRET signal,[2]; compound concentration 15.84 nM,1.0796 and 1.304 and 0.9239 and 1.0376 and 1.022 and 1.028
same,TR-FRET signal at compound concentration 15.84 nM,"[2]; compound concentration 15.84 nM, raw replicate titration data",1.0796 and 1.304 and 0.9239 and 1.0376 and 1.022 and 1.028
same,TR-FRET signal,[2]; compound concentration 30.96 nM,1.682 and 1.792 and 1.613 and 1.69 and 1.622 and 1.648
same,TR-FRET signal at compound concentration 30.96 nM,"[2]; compound concentration 30.96 nM, raw replicate titration data",1.682 and 1.792 and 1.613 and 1.69 and 1.622 and 1.648
same,TR-FRET signal,[2]; compound concentration 62.6401 nM,1.888 and 1.962 and 1.877 and 1.886 and 1.857 and 1.865
same,TR-FRET signal at compound concentration 62.6401 nM,"[2]; compound concentration 62.6401 nM, raw replicate titration data",1.888 and 1.962 and 1.877 and 1.886 and 1.857 and 1.865
same,TR-FRET signal,[2]; compound concentration 125.28 nM,1.977 and 2.1 and 1.914 and 1.988 and 1.925 and 1.931
same,TR-FRET signal at compound concentration 125.28 nM,"[2]; compound concentration 125.28 nM, raw replicate titration data",1.977 and 2.1 and 1.914 and 1.988 and 1.925 and 1.931
same,TR-FRET signal,[2]; compound concentration 244.8 nM,2.037 and 2.154 and 1.951 and 1.963 and 1.955 and 1.942
same,TR-FRET signal at compound concentration 244.8 nM,"[2]; compound concentration 244.8 nM, raw replicate titration data",2.037 and 2.154 and 1.951 and 1.963 and 1.955 and 1.942
same,TR-FRET signal,[2]; compound concentration 993.601 nM,2.0169 and 2.142 and 1.9225 and 1.946 and 1.977 and 1.949
same,TR-FRET signal at compound concentration 993.601 nM,"[2]; compound concentration 993.601 nM, raw replicate titration data",2.0169 and 2.142 and 1.9225 and 1.946 and 1.977 and 1.949
same,TR-FRET signal,[2]; compound concentration 2001.6 nM,2.032 and 2.062 and 1.95 and 1.938 and 1.928 and 1.943
same,TR-FRET signal at compound concentration 2001.6 nM,"[2]; compound concentration 2001.6 nM, raw replicate titration data",2.032 and 2.062 and 1.95 and 1.938 and 1.928 and 1.943
same,DC50,"[3]; Supplementary Fig. 4, HEK293T cycKeGFP reporter, 5h, n=2, read-out: DC50 printed on reporter plot",39 nM
same,DC50,"[3]; source data sheet correlations, read-out: DC50",14 nM
same,"Lanthascreen signal, sheet CDK2","[4]; Compound 0.038147 nM, raw replicates, experiment r13-r23",0.0127 and 0.01284
same,"Lanthascreen signal, sheet CDK2","[4]; Compound 0.038147 nM, raw replicates, experiment r36-r46",0.01329 and 0.01256
same,"Lanthascreen signal, sheet CDK2","[4]; Compound 0.038147 nM, raw replicates, experiment r48-r58",0.01292 and 0.01236
same,"Lanthascreen signal, sheet CDK2","[4]; Compound 0.152588 nM, raw replicates, experiment r13-r23",0.01305 and 0.01264
same,"Lanthascreen signal, sheet CDK2","[4]; Compound 0.152588 nM, raw replicates, experiment r36-r46",0.01299 and 0.01282
same,"Lanthascreen signal, sheet CDK2","[4]; Compound 0.152588 nM, raw replicates, experiment r48-r58",0.01645 and 0.0151
same,"Lanthascreen signal, sheet CDK2","[4]; Compound 0.610352 nM, raw replicates, experiment r13-r23",0.01296 and 0.01232
same,"Lanthascreen signal, sheet CDK2","[4]; Compound 0.610352 nM, raw replicates, experiment r36-r46",0.01373 and 0.01242
same,"Lanthascreen signal, sheet CDK2","[4]; Compound 0.610352 nM, raw replicates, experiment r48-r58",0.01563 and 0.01504
same,"Lanthascreen signal, sheet CDK2","[4]; Compound 1.02544 nM, raw replicates, experiment r1-r11",0.01131 and 0.01009
same,"Lanthascreen signal, sheet CDK2","[4]; Compound 3.15521 nM, raw replicates, experiment r1-r11",0.009228 and 0.009357
same,"Lanthascreen signal, sheet CDK2","[4]; Compound 4.57247 nM, experiment r25-r34",0.01614
same,"Lanthascreen signal, sheet CDK2","[4]; Compound 9.76563 nM, raw replicates, experiment r13-r23",0.01326 and 0.01312
same,"Lanthascreen signal, sheet CDK2","[4]; Compound 9.76563 nM, raw replicates, experiment r36-r46",0.01252 and 0.01318
same,"Lanthascreen signal, sheet CDK2","[4]; Compound 9.76563 nM, raw replicates, experiment r48-r58",0.01463 and 0.01476
same,"Lanthascreen signal, sheet CDK2","[4]; Compound 9.76563 nM, raw replicates, experiment r60-r70",0.02088 and 0.02079 and 0.02078
same,"Lanthascreen signal, sheet CDK2","[4]; Compound 13.7174 nM, experiment r25-r34",0.01619
same,"Lanthascreen signal, sheet CDK2","[4]; Compound 39.0625 nM, raw replicates, experiment r13-r23",0.01273 and 0.01299
same,"Lanthascreen signal, sheet CDK2","[4]; Compound 39.0625 nM, raw replicates, experiment r36-r46",0.01285 and 0.01213
same,"Lanthascreen signal, sheet CDK2","[4]; Compound 39.0625 nM, raw replicates, experiment r48-r58",0.01551 and 0.01552
same,"Lanthascreen signal, sheet CDK2","[4]; Compound 39.0625 nM, raw replicates, experiment r60-r70",0.01951 and 0.02081 and 0.02075
same,"Lanthascreen signal, sheet CDK2","[4]; Compound 41.1523 nM, experiment r25-r34",0.01684
same,"Lanthascreen signal, sheet CDK2","[4]; Compound 123.457 nM, experiment r25-r34",0.01665
same,"Lanthascreen signal, sheet CDK2","[4]; Compound 156.25 nM, raw replicates, experiment r13-r23",0.01317 and 0.01374
same,"Lanthascreen signal, sheet CDK2","[4]; Compound 156.25 nM, raw replicates, experiment r36-r46",0.01372 and 0.0133
same,"Lanthascreen signal, sheet CDK2","[4]; Compound 156.25 nM, raw replicates, experiment r48-r58",0.01549 and 0.01505
same,"Lanthascreen signal, sheet CDK2","[4]; Compound 156.25 nM, raw replicates, experiment r60-r70",0.01961 and 0.02092 and 0.0201
same,"Lanthascreen signal, sheet CDK2","[4]; Compound 370.37 nM, experiment r25-r34",0.01637
same,"Lanthascreen signal, sheet CDK2","[4]; Compound 625 nM, raw replicates, experiment r13-r23",0.0132 and 0.01347
same,"Lanthascreen signal, sheet CDK2","[4]; Compound 625 nM, raw replicates, experiment r36-r46",0.01352 and 0.01293
same,"Lanthascreen signal, sheet CDK2","[4]; Compound 625 nM, raw replicates, experiment r48-r58",0.01526 and 0.01348
same,"Lanthascreen signal, sheet CDK2","[4]; Compound 625 nM, raw replicates, experiment r60-r70",0.01884 and 0.01787 and 0.01937
same,"Lanthascreen signal, sheet CDK2","[4]; Compound 2500 nM, raw replicates, experiment r13-r23",0.01229 and 0.01217
same,"Lanthascreen signal, sheet CDK2","[4]; Compound 2500 nM, raw replicates, experiment r36-r46",0.01331 and 0.01286
same,"Lanthascreen signal, sheet CDK2","[4]; Compound 2500 nM, raw replicates, experiment r48-r58",0.01476 and 0.01465
same,"Lanthascreen signal, sheet CDK2","[4]; Compound 2500 nM, raw replicates, experiment r60-r70",0.01706 and 0.01739 and 0.01756
same,"Lanthascreen signal, sheet CDK2","[4]; Compound 3155.21 nM, raw replicates, experiment r1-r11",0.009677 and 0.009716
same,"Lanthascreen signal, sheet CDK2","[4]; Compound 3333.33 nM, experiment r25-r34",0.01493
same,"Lanthascreen signal, sheet CDK2","[4]; Compound 10000 nM, experiment r25-r34",0.01253
same,"Lanthascreen signal, sheet CDK2","[4]; Compound 10000 nM, raw replicates, experiment r13-r23",0.01083 and 0.01088
same,"Lanthascreen signal, sheet CDK2","[4]; Compound 10000 nM, raw replicates, experiment r36-r46",0.01118 and 0.01139
same,"Lanthascreen signal, sheet CDK2","[4]; Compound 10000 nM, raw replicates, experiment r48-r58",0.01493 and 0.01454
same,"Lanthascreen signal, sheet CDK2","[4]; Compound 10000 nM, raw replicates, experiment r60-r70",0.01597 and 0.01433 and 0.01526
same,"Lanthascreen signal, sheet CDK2","[4]; Compound 10002 nM, raw replicates, experiment r1-r11",0.009692 and 0.009444
same,pIC50,"[4]; Lanthascreen, average, Extended Data Fig. 8, read-out: CDK2 IC50",< 5.00
same,IC50,"[4]; Supplementary Table 2, read-out: Lanthascreen IC50 [nM] CDK2",> 10000 nM
